Experimental data from patent publication US10065990B2, “Cyclic peptide compound, and preparation method, pharmaceutical composition and use thereof” (HANGZHOU GUANYU BIO-MEDICAL CO., LTD, priority 2013, dated 2018).
Read-outs that look alike come from different tables or passages of the source.

Assays:
[1] = target: T1, HDAC7 (Homo sapiens, UniProt Q8WUI4); test: HDAC biochemical activity measurement (fluorescent substrate deacetylation);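 note: fluorogenic deacetylation assay using acetyl-lysine substrate at 20 µM, enzyme and compound incubated 30 min at 37 °C, then developer added, fluorescence read at 360/460 nm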; details: HDAC7; 37° C. 30 minutes
T1 sequence (Q8WUI4 1-952): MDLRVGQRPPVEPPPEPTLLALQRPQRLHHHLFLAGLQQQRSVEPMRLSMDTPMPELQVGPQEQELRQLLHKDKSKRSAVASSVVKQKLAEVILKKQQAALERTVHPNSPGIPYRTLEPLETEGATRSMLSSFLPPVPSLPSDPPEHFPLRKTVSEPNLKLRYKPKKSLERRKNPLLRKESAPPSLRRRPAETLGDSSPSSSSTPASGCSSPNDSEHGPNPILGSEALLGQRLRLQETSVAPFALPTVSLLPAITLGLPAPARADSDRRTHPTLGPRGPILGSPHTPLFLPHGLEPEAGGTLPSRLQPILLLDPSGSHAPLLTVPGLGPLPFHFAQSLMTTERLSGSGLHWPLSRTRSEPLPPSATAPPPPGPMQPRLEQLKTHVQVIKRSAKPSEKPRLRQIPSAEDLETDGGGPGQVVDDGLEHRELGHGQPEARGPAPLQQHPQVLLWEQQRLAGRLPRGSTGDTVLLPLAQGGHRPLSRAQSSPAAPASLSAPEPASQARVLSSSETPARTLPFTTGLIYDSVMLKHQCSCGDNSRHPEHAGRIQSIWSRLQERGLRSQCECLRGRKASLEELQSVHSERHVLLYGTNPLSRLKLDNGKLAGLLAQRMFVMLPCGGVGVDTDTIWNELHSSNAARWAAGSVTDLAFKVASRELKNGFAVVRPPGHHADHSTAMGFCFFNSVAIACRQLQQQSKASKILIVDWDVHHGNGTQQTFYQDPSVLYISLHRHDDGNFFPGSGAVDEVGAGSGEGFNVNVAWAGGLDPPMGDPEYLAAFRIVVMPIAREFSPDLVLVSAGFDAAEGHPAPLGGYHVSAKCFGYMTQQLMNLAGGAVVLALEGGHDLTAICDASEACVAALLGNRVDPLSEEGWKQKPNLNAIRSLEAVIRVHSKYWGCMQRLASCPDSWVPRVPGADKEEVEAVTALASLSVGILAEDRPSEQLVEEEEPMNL

[2] = test system: KBM-5 (human chronic myelogenous leukemia); test: MTT cancer cell growth inhibition; assay type: cell-based; details: MTT, 72 hours incubation, KBM-5 cells, read-out: GI50 KBM-5
Method in brief: (§1)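 Three-day compound exposure (final 10^−5–10^−10 M, three replicate wells) of cells seeded at 1500 per well precedes a 4 h MTT incubation at 37° C. Viability is taken from 570 nm absorbance after DMSO solubilisation, and GI50 calculated from it.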

[3] = test system: Bel-7402 (human hepatoma cells); test: MTT cancer cell growth inhibition; assay type: cell-based; details: MTT, 72 hours incubation, Bel-7402 cells, read-out: GI50 Bel-7402
Method in brief: as §1

[4] = test system: DU145 (human prostate cancer cells); test: MTT cancer cell growth inhibition; assay type: cell-based; details: Homo sapiens, DU-145, 72 h, MTT, 72 hours incubation, read-out: GI50 Du1
Method in brief: as §1

[5] = test system: Hela (human cervical cancer cells); test: MTT cancer cell growth inhibition; assay type: cell-based; details: MTT, 72 hours incubation, read-out: GI50 Hela
Method in brief: as §1

[6] = test system: N-87 (human gastric cancer cells); test: MTT cancer cell growth inhibition; assay type: cell-based; details: Homo sapiens, 72 h, MTT, 72 hours incubation, N-87 cells; read-out: GI50 N-87
Method in brief: as §1

[7] = test system: MDA-MB-231 (breast cancer cells); test: MTT cancer cell growth inhibition; assay type: cell-based
Method in brief: as §1

[8] = test system: Huh-7 (human hepatoma cells); test: MTT cancer cell growth inhibition; assay type: cell-based; details: Homo sapiens, Huh-7, 72 h, MTT, 72 hours incubation, Huh-7 cells; read-out: GI50 Huh-7
Method in brief: as §1

[9] = test system: BGC-823 (human gastric cancer cells); test: MTT cancer cell growth inhibition; assay type: cell-based; details: Homo sapiens, BGC-823, 72 h, MTT, 72 hours incubation, read-out: GI50 BG
Method in brief: as §1

[10] = test system: A549 (human lung cancer cells); test: MTT cancer cell growth inhibition; assay type: cell-based; details: Homo sapiens, A549, 72 h, MTT, 72 hours incubation, read-out: GI50 A54
Method in brief: as §1

[11] = test system: U937 (human leukemia cells); test: MTT cancer cell growth inhibition; assay type: cell-based; details: Homo sapiens, U-937, 72 h, MTT, 72 hours incubation, read-out: GI50 U93
Method in brief: as §1

[12] = test system: MOLT-4 (human acute lymphoblastic leukemia cells); test: MTT cancer cell growth inhibition; assay type: cell-based; details: MTT, 72 hours incubation, read-out: GI50 Mol
Method in brief: as §1

[13] = test system: KBM5-T315I (human chronic myelogenous leukemia); test: MTT cancer cell growth inhibition; assay type: cell-based; details: Homo sapiens, 72 h, MTT, 72 hours incubation, KBM5-T315I cells; read-out: GI50 KBM5-T315I
Method in brief: as §1

[14] = test system: HCC827 (human non-small cell lung cancer cells); test: MTT cancer cell growth inhibition; assay type: cell-based; details: MTT, 72 hours incubation, HCC827 cells, read-out: GI50 HCC827
Method in brief: as §1

[15] = test system: HT1080 (human fibrosarcoma cells); test: MTT cancer cell growth inhibition; assay type: cell-based; details: MTT, 72 hours incubation, read-out: GI50 HT1
Method in brief: as §1

[16] = test system: H1975 (non-small cell lung adenocarcinoma); test: MTT cancer cell growth inhibition; assay type: cell-based; details: MTT, 72 hours incubation, H1975 cells, read-out: GI50 H1975
Method in brief: as §1

[17] = test system: MCF-7 (human breast cancer cells); test: MTT cancer cell growth inhibition; assay type: cell-based; details: Homo sapiens, MCF7, 72 h, 72 hours incubation, read-out: GI50 MCF
Method in brief: as §1

[18] = test system: SGC-7901 (human gastric cancer cells); test: MTT cancer cell growth inhibition; assay type: cell-based; details: MTT, 72 hours incubation, SGC-7901 cells, read-out: GI50 SGC-7901
Method in brief: as §1

[19] = test system: PANC-1 (Pac-1, human pancreatic cancer cells); test: MTT cancer cell growth inhibition; assay type: cell-based; details: MTT, 72 hours incubation, read-out: GI50 PAN
Method in brief: as §1

[20] = test system: K562 (human leukemia cells); test: MTT cancer cell growth inhibition; assay type: cell-based; details: Homo sapiens, K562, 72 h, MTT, 72 hours incubation, K562 cells; read-out: GI50 K562
Method in brief: as §1

[21] = test system: lncap (prostate cancer cells); test: MTT cancer cell growth inhibition; assay type: cell-based; details: MTT, 72 hours incubation, read-out: GI50 lnca
Method in brief: as §1

[22] = Homo sapiens, MDA-MB-231, 72 h, read-out: GI50 MDA-MB-231, MTT, 72 hours incubation, MDA-MB-231 cells
[23] = Homo sapiens, HeLa, 72 h, Hela cells
[24] = Homo sapiens, MOLT-4, 72 h, MOLT-4 cells
[25] = Homo sapiens, HT-1080, 72 h, HT1080 cells
[26] = Homo sapiens, PANC-1, 72 h, PANC-1 cells
[27] = Homo sapiens, LNCaP, 72 h, lncap cells

IC50 HDAC7 [1] | GI50 ([4]; DU145 cells) [nM] | GI50 [6] [nM] | GI50 [8] [nM] | GI50 ([9]; BGC-823 cells) [nM] | GI50 ([10]; A549 cells) [nM] | GI50 ([11]; U937 cells) [nM] | GI50 [13] [nM] | GI50 ([17]; MCF-7 cells) [nM] | GI50 [20] [nM] | GI50 ([2]; Homo sapiens, KBM5, 72 h) [nM] | GI50 ([3]; Homo sapiens, Bel-7402, 72 h) [nM] | GI50 [4] [nM] | GI50 ([5]; Homo sapiens, HeLa, 72 h) [nM] | GI50 [7, 22] [nM] | GI50 [9] [nM] | GI50 [10] [nM] | GI50 ([14]; Homo sapiens, HCC827, 72 h) [nM] | GI50 ([16]; Homo sapiens, NCI-H1975, 72 h) [nM] | GI50 ([18]; Homo sapiens, SGC-7901, 72 h) [nM] | SMILES | other results
no activity | 40 | 42 | 29 | 40 | 30 | 20 | 33 | 30 | 45 | – | – | – | – | – | – | – | – | – | – | C/C=C1\NC(=O)c2ccc(SC)c(n2)CNC(=O)C[C@@H](/C=C/CCSC(C)=O)OC(=O)[C@H](C(C)C)NC1=O [Compound 167] | GI50 [2]: 14 nM; GI50 [3]: 75 nM; GI50 ([5]; Hela cells): 40 nM; GI50 ([7]; read-out: GI50 MDA-MB-231, MTT, 72 hours incubation, MDA-MB-231 cells): 91 nM; GI50 ([12]; MOLT-4 cells): 20 nM; GI50 [14]: 28 nM; GI50 ([15]; HT1080 cells): 100 nM; GI50 [16]: 43 nM; GI50 [18]: 97 nM; GI50 ([19]; PANC-1 cells): 70 nM; GI50 ([21]; lncap cells): 60 nM
no activity | – | 31 | 25 | – | – | – | 58 | – | 47 | 64 | 57 | 30 | 50 | 75 | 30 | 60 | 29 | 36 | 39 | C/C=C1\NC(=O)c2cc(F)cc(n2)CNC(=O)C[C@@H](/C=C/CCS)OC(=O)[C@H](Cc2cccc3ccccc23)NC1=O [Compound 125] | GI50 [11]: 50 nM; GI50 ([12]; Homo sapiens, MOLT-4, 72 h): 110 nM; GI50 ([15]; Homo sapiens, HT-1080, 72 h): 40 nM; GI50 [17]: 60 nM; GI50 ([19]; Homo sapiens, PANC-1, 72 h): 120 nM; GI50 ([21]; Homo sapiens, LNCaP, 72 h): 110 nM
no activity | – | 50 | 22 | – | – | – | 67 | – | 26 | 72 | 83 | 20 | 70 | 22 | 50 | 40 | 83 | 35 | 41 | C/C=C1\NC(=O)c2nc(ccc2F)CNC(=O)C[C@@H](/C=C/CCSC(=O)CCCC)OC(=O)[C@H](C(C)C)NC1=O [Example 39] | GI50 [11]: 30 nM; GI50 ([12]; Homo sapiens, MOLT-4, 72 h): 20 nM; GI50 ([15]; Homo sapiens, HT-1080, 72 h): 80 nM; GI50 [17]: 60 nM; GI50 ([19]; Homo sapiens, PANC-1, 72 h): 80 nM; GI50 ([21]; Homo sapiens, LNCaP, 72 h): 20 nM
no activity | – | 55 | 42 | – | – | – | 33 | – | 39 | 31 | 79 | 60 | 130 | 31 | 100 | 30 | 21 | 63 | 44 | C=C1NC(=O)c2nc(ccc2F)CNC(=O)C[C@@H](/C=C/CCS)OC(=O)[C@H](C)NC1=O [Compound 140] | GI50 [11]: 70 nM; GI50 ([12]; Homo sapiens, MOLT-4, 72 h): 50 nM; GI50 ([15]; Homo sapiens, HT-1080, 72 h): 50 nM; GI50 [17]: 80 nM; GI50 ([19]; Homo sapiens, PANC-1, 72 h): 30 nM; GI50 ([21]; Homo sapiens, LNCaP, 72 h): 20 nM
no activity | 30 | 32 | 90 | 50 | 30 | 40 | 35 | 40 | 35 | 29 | 69 | – | – | 38 | – | – | 11 | 73 | 51 | C/C=C1\NC(=O)c2nc(ccc2SC)CNC(=O)C[C@@H](/C=C/CCSC(C)=O)OC(=O)[C@H](Cc2ccc(O)cc2)NC1=O [Compound 201] | GI50 [5, 23]: 30 nM; GI50 [12, 24]: 20 nM; GI50 [15, 25]: 60 nM; GI50 [19, 26]: 60 nM; GI50 [21, 27]: 70 nM
no activity | 20 | 48 | 75 | 50 | 20 | 50 | 17 | 30 | 63 | 57 | 28 | – | – | 67 | – | – | 56 | 23 | 86 | C/C=C1\NC(=O)c2cc(SC)cc(n2)CNC(=O)C[C@@H](/C=C/CCSC(=O)CCCCCCC)OC(=O)[C@H](Cc2ccccc2)NC1=O [Compound 190] | GI50 [5, 23]: 60 nM; GI50 [12, 24]: 70 nM; GI50 [15, 25]: 20 nM; GI50 [19, 26]: 60 nM; GI50 [21, 27]: 30 nM
